Test results published in patent publication US12390451B2, “Small molecule inhibitor of the JAK family of kinases” (Janssen Pharmaceutica NV, priority 2021, dated 2025).
Like-named read-outs stand apart in the source and are kept apart here.

Key:
JAK2/JAK2 = molecular target: T1, JAK2/JAK2 (Homo sapiens, UniProt O60674); experiment: TPO-induced pSTAT-3 in human whole blood; type: cell-based; details: mean
T1 construct: endogenous in cells; host or cells: human whole blood
Description: (§1) Compound of Formula I presents low levels of systemic exposure after oral administration. To understand the relationship between systemic exposure and target engagement in human studies, the inhibition of cytokine-induced pSTAT-3 in human whole blood was measured with such compound. In human whole blood, compound of Formula I in a concentration-dependent manner inhibited the JAK1, JAK2, JAK3, and Tyk2 homo- and heterodimers downstream of IFNα (JAK1/Tyk2), thrombopoietin (TPO) (JAK2/JAK2), and IL-21 (JAK1/JAK3) signaling.

JAK1/JAK3 = molecular target: T2, JAK1/JAK3 (Homo sapiens, UniProt P23458+P52333); experiment: IL-21-induced pSTAT-3 in human whole blood; type: cell-based; details: mean
T2 construct: endogenous in cells; host or cells: human whole blood
T2 sequence (P23458 whole entry): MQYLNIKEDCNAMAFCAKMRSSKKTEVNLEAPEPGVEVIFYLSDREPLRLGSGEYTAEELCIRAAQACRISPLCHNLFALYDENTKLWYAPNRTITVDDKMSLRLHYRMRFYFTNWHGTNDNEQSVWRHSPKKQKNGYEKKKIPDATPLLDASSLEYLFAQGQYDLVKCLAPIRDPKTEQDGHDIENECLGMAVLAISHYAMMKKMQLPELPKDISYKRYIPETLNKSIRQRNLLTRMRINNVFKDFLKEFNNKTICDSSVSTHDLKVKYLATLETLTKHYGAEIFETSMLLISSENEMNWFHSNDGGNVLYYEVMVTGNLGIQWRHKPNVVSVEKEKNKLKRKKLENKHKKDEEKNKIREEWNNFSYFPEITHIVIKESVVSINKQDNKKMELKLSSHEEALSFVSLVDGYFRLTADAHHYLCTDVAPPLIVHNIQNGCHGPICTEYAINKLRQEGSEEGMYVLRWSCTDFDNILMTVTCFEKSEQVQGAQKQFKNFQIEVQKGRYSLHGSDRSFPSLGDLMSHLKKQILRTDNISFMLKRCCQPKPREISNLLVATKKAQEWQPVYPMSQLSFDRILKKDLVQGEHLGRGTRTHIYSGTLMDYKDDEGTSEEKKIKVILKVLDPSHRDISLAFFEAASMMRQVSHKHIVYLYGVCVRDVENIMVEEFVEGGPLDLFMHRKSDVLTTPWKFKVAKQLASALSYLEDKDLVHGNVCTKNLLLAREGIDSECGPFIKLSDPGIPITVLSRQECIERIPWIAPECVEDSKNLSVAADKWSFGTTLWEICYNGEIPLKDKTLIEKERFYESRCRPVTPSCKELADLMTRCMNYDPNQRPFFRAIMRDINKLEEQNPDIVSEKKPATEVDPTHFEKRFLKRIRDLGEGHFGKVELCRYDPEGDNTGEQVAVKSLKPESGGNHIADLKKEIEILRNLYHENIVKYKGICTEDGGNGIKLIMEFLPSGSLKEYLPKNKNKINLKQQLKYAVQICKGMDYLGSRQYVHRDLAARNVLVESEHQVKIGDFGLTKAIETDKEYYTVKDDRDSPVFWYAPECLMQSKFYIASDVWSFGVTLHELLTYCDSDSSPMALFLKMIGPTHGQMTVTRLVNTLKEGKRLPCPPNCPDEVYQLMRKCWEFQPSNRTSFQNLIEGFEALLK
T2 sequence (P52333 whole entry): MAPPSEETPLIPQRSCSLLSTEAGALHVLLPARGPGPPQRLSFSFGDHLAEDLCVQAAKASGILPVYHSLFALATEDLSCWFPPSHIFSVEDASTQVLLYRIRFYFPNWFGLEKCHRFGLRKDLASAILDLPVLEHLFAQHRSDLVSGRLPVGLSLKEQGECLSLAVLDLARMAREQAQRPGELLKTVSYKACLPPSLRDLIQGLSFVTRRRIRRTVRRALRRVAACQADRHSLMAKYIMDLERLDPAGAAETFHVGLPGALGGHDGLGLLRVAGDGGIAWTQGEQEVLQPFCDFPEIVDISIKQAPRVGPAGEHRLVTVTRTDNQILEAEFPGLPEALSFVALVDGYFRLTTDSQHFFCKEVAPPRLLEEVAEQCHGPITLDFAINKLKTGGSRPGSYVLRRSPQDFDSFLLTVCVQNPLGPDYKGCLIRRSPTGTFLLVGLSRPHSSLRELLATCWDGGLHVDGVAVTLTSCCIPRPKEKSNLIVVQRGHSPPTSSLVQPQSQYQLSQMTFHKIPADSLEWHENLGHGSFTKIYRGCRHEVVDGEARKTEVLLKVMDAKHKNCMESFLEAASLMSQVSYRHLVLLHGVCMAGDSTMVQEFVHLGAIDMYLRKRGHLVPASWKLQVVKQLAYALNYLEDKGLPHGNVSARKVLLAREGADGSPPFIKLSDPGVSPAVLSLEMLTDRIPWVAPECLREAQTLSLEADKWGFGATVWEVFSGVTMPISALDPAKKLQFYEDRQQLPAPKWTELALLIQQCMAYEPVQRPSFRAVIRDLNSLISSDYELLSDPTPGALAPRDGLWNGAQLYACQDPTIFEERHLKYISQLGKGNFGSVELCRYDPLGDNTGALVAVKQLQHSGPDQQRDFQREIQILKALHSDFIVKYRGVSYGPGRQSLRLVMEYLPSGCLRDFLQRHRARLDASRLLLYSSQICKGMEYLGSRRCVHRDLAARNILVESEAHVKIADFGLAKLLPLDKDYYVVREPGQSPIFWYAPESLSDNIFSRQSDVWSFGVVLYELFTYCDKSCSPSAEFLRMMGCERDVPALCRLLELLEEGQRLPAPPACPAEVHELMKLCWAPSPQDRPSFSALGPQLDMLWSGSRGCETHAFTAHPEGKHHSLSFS
T2 sequence (Q9HBE5 20-538 partner): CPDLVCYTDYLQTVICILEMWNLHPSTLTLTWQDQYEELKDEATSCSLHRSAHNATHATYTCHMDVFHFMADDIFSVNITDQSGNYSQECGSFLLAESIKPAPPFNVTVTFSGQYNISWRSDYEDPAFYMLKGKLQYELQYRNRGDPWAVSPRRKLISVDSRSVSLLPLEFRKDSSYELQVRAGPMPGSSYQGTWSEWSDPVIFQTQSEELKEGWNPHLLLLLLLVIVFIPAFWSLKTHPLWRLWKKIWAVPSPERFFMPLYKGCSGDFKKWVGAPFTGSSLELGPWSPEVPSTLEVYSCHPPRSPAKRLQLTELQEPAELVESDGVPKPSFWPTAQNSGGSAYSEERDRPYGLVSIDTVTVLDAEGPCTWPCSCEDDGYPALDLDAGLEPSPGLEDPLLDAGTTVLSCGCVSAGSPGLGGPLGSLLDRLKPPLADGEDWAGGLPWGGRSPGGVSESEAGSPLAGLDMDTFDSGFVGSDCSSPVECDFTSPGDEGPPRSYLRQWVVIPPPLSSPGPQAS
T2 sequence (P31785 23-369 partner): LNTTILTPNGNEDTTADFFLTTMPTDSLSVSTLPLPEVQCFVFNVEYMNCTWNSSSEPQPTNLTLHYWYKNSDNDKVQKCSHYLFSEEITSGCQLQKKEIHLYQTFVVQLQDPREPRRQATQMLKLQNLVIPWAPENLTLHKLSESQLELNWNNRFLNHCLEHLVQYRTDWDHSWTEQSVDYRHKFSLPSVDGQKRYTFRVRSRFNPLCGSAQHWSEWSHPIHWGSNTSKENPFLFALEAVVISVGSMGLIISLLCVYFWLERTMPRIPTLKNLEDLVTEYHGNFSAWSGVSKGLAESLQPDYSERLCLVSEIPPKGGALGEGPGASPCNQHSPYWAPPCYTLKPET
Description: as §1

[1] = system: IL-12/IL-18-induced pSTAT-3 in the colon; experiment: IL-12/IL-18-induced colonic pSTAT-3 response in mice after oral dosing; type: in vivo, C57BL/6 mice; details: Mus musculus, read-out: Percent Inhibition of colonic pSTAT-3
Excerpt: To understand the potential of local, enteric-selective JAK inhibitors to inhibit STAT signaling in colon tissue, two pharmacokinetic/pharmacodynamic (PK/PD) studies were developed. The first involved the combined intraperitoneal administration of IL-12 and IL-18 in mice which induces a systemic inflammatory response resulting in activation of the JAK/STAT pathway in colonic tissue which can be monitored by robust phosphorylation of STAT3 three hours after challenge. The second PK/PD model involves the ex vivo stimulation of mouse colon tissue with a cocktail of cytokines (IL-22, IL-6, and IFNα), measuring the inhibition of STAT3 phosphorylation after oral dosing of compound of Formula I.
The combined intraperitoneal administration of IL-12 and IL-18 induces colonic inflammation in mice (Chikano S, et al. Gut 47(6),779-786 (2000) “IL-18 and IL-12 induce intestinal inflammation and fatty liver in mice in an IFN-gamma dependent manner”; Nold-Petry C, et al. Front Immunol. 8, 1531(2017) “Gp96 Antagonist Protects in Murine-Intestinal-Inflammation”). An inflammatory response in colonic tissue can be monitored by robust phosphorylation of STAT3 three hours after challenge with IL 12/IL-18. In this non-GLP study, the effect of the orally administered compound of Formula I was evaluated on STAT3 responses in mouse colonic tissue induced by systemic dosing of both IL-12 and IL 18.
C57BL/6 mice (6 to 8 weeks old) were randomized by weight and assigned to various treatment groups for each of two studies. Mice were challenged intraperitoneally with a combination of IL-12 (250 ng) and IL-18 (1 μg). To examine the effect of compound of Formula I on IL-12/IL-18-induced pSTAT-3 response, groups of mice were orally dosed with compound of Formula I 1 hour prior to IL-12/IL-18 challenge. Three hours after IL-12/IL-18 challenge, mice were euthanized with CO2 asphyxiation, blood was collected via cardiocentesis for PK analysis, and colon tissues were collected for measuring pSTAT-3 response and drug levels. Mice dosed orally with 20% 2-hydroxypropyl-β-cyclodextrin (HP-β-CD) were used as vehicle controls. Two independent studies (S-1 and S-2) were conducted to examine the effect of compound of Formula I on IL-12/IL-18-induced colonic pSTAT-3 response in mice. […] Serum levels were measured at 30 minutes and 4 hours (terminal) after dosing. […] Colon drug levels were measured 4 hours after dosing. […] Colonic exposure of compound of Formula I increased in a dose-dependent fashion. At 25 mg/kg dose, colonic exposure of compound of Formula I was 30814.5±5552.5 ng/g and 18256.5±4118.8 ng/g tissue. […] Oral dosing of compound of Formula I in mice resulted, as shown in other studies, in minimum systemic exposure and lack of consistent dose-dependent pharmacodynamic responses in the blood.
Percent inhibition of colonic pSTAT-3 was determined using log transformed data following outlier removal.

[2] = Tissue distribution in mice after oral administration; type: in vivo, female C57Bl/6 mice; details: oral 10 mg/kg; for concentration at 0.5 h / concentration at 1 h / concentration at 2 h / concentration at 3 h / concentration at 5 h / concentration at 7 h / concentration at 24 h: female, C57Bl/6, mouse
Description: Limited tissue (liver, intestine) distribution studies were conducted in female C57Bl/6 mice ([…]) at 0.5, 1, 2, 3, 5, 7, and 24 hours following oral administration of compound of Formula 1 at a dose of 10 mg/kg formulated as a solution in 20% HP-β-CD. The plasma and the following tissues were harvested for compound concentration analysis: liver, whole ileum, and whole colon. The ileum and colon were flushed with saline prior to homogenization. Feces were collected over a period of 24 hours. All tissues (except plasma) were homogenized in sterile water and compound of Formula I concentrations were determined using LC-MS/MS. […] The concentration of compound of Formula I in feces was 125.6 μg at 24 hours post dose.

[3] = colon, mean ± SD, read-out: Colon concentration
[4] = ileum, mean ± SD, read-out: Ileum concentration
[5] = liver, mean ± SD, read-out: Liver concentration
[6] = plasma, mean ± SD, read-out: Plasma concentration

T1 sequence (O60674 whole entry): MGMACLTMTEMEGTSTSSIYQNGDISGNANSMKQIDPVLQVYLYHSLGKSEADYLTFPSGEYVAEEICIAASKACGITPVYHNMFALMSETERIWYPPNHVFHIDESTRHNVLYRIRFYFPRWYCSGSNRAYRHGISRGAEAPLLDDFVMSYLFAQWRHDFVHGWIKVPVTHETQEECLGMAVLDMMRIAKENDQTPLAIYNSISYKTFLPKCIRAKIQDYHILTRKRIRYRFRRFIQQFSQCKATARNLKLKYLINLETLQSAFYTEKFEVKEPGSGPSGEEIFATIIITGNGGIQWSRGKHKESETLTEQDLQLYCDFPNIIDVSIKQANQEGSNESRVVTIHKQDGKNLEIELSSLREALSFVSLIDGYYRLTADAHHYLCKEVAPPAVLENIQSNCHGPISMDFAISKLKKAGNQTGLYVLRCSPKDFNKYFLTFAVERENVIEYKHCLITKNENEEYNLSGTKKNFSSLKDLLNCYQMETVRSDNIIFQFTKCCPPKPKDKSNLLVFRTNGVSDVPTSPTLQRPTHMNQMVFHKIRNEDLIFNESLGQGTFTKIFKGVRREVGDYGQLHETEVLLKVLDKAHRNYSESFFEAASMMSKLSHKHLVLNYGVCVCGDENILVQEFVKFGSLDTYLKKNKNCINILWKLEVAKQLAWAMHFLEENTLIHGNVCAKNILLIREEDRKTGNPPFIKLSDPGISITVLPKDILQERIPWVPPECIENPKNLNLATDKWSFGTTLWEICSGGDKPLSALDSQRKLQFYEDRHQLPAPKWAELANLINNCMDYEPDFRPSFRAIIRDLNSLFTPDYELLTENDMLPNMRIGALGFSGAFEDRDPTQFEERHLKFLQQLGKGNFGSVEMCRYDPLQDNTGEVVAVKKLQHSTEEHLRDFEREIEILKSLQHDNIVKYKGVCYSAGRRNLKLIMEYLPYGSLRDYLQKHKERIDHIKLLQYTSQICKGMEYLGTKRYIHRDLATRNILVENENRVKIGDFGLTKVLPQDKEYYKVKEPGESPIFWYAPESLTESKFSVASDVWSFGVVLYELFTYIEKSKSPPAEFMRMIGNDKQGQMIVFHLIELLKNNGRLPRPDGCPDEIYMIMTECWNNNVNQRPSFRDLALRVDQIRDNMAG
T1 sequence (P40238 26-635 partner): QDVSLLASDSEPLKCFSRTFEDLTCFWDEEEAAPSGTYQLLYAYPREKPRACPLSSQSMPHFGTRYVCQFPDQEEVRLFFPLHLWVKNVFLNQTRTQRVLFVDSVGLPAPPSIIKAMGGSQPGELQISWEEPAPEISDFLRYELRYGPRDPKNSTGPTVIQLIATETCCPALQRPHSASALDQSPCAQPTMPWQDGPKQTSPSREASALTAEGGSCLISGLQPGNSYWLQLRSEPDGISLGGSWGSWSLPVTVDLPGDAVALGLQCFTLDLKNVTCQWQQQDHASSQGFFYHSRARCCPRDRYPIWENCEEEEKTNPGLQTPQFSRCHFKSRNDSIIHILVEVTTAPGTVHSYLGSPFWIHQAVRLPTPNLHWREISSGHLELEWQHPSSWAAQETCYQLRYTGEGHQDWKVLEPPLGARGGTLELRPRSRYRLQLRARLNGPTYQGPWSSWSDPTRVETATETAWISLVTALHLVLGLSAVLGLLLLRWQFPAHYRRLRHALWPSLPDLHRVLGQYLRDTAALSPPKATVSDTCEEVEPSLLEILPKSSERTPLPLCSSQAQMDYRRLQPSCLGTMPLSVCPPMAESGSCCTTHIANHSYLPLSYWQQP

IC50 (JAK2/JAK2): 490 nM
IC50 (JAK1/JAK3): 579 nM
concentration at 0.5 h ([2]; colon, N = 2, read-out: Colon concentration): 94.2 ng/g
concentration at 1 h [2, 3]: 5110 ng/g
concentration at 2 h [2, 3]: 6620 ng/g
concentration at 3 h [2, 3]: 7760 ng/g
concentration at 5 h [2, 3]: 8450 ng/g
concentration at 7 h [2, 3]: 3790 ng/g
concentration at 24 h ([2]; colon, 24 h, mean ± SD, read-out: Colon concentration): 195 ± 120 ng/g
concentration at 0.5 h [2, 4]: 73.8 ± 11.6 ng/g
concentration at 1 h [2, 4]: 22700 ng/g
concentration at 2 h [2, 4]: 12000 ng/g
concentration at 3 h [2, 4]: 16400 ng/g
concentration at 5 h [2, 4]: 3440 ng/g
concentration at 7 h [2, 4]: 2250 ng/g
concentration at 24 h ([2]; ileum, 24 h, mean ± SD, read-out: Ileum concentration): 87.6 ± 17.8 ng/g
concentration at 0.5 h [2, 5]: 34.8 ± 16.5 ng/g
concentration at 1 h [2, 5]: 189 ± 304 ng/g
concentration at 2 h [2, 5]: 84.5 ± 114 ng/g
concentration at 3 h [2, 5]: 23.3 ± 0.8 ng/g
concentration at 5 h [2, 5]: 16.8 ± 8.8 ng/g
concentration at 7 h ([2]; liver, N = 2, read-out: Liver concentration): 24 ng/g
concentration at 0.5 h [2, 6]: 3.5 ± 1.8 ng/mL
concentration at 1 h [2, 6]: 2.6 ± 0.9 ng/mL
concentration at 2 h [2, 6]: 2.3 ± 0.2 ng/mL
concentration at 3 h [2, 6]: 3.2 ± 1.7 ng/mL
concentration at 5 h [2, 6]: 2.1 ± 0.9 ng/mL
concentration at 7 h [2, 6]: 6 ± 4.9 ng/mL
Liver concentration ([2]; 24 h, BLOQ (1 ng/mL)): BLOQ^b
Plasma concentration ([2]; 24 h, BLOQ (1 ng/mL)): BLOQ^b
concentration in feces ([2]; 24 hours post dose): 125.6 µg
Structure (SMILES): CC(C)(O)CNC(=O)Cc1nc2cnc3[nH]ccc3c2n1[C@H]1CC[C@H](CC#N)CC1 [Compound of Formula I, 2-(1-((1r,4r)-4-(Cyanomethyl)cyclohexyl)-1,6-dihydroimidazo[4,5-d]pyrrolo[2,3-b]pyridin-2-yl)-N-(2-hydroxy-2-methylpropyl)acetamide]
inhibition at 10 mg/kg ([1]; Study S-1, oral 10 mg/kg): 3.9%
inhibition at 25 mg/kg ([1]; Study S-1, oral 25 mg/kg): 25.8%
inhibition at 50 mg/kg ([1]; Study S-1, oral 50 mg/kg): 49.7%
inhibition at 10 mg/kg ([1]; Study S-2, oral 10 mg/kg): 33.1%
inhibition at 25 mg/kg ([1]; Study S-2, oral 25 mg/kg): 61.2%
inhibition at 50 mg/kg ([1]; Study S-2, oral 50 mg/kg): 66.1%
